This is an account of results in patent US8591877B2, “Cellulose-based nanoparticles for drug delivery” (Ontario Institute for Cancer Research, priority 2011, dated 2013).

Where two headings read alike, the source gives them in different places.

Series [1] in a line: Maximum tolerated dose (MTD) study in healthy mice. Conditions: female, BALB/c, mouse, in vivo, iv; single i.v. dose, limit <5% body weight loss; read-out: MTD for docetaxel in mice. The text has this: (§1) Female BALB/c and C57/BL6 mice (aged 6 weeks, 18-20 g) were purchased from The Jackson Laboratory (Bar Harbor, Me.). All experimental protocols in this study were approved by the Animal Care Committee of the University Health Network (Toronto, Ontario, Canada) in accordance with the policies established in the Guide to the Care and Use of Experimental Animals prepared by the Canadian Council of Animal Care. For each study, the DTX was formulated in a Tween80/ethanol/saline (20:13:67) solution (4 mg DTX/mL), and sterile filtered. The Cellax particles were adjusted to 4, 7.5 or 15 mg DTX/mL in saline and sterile filtered.
Tissues from mice (organs, bones, and tumors) were rinsed with saline and fixed in 10% formalin for 2 days, followed by storage in 70% ethanol. Preparation of tissues into slides was performed at the Toronto General Hospital Pathology Research Program lab (Toronto, ON). […] Prepared slides were analyzed on an Aperio Scanner at the Advanced Optical Microscopy Facility (AOMF) at the Princess Margaret Hospital (Toronto, ON). […] For TUNEL, Ki67, and CD31 stained samples, brown pixels were counted with the ImageScope Positive Pixel Count algorithm. For each tumor or organ analyzed, three tissue sections were each divided into three equal regions, generating n=9 data points. Image analysis output were positive pixel counts divided by the area analyzed. […]

Series [2] concerns EMT-6 flank tumors. Briefly: Subcutaneous flank tumor study, EMT-6. The series is classed as in vivo.
Description: as §1
Tissues from mice (organs, bones, and tumors) were rinsed with saline and fixed in 10% formalin for 2 days, followed by storage in 70% ethanol. […] Prepared slides were analyzed on an Aperio Scanner at the Advanced Optical Microscopy Facility (AOMF) at the Princess Margaret Hospital (Toronto, ON). […] For TUNEL, Ki67, and CD31 stained samples, brown pixels were counted with the ImageScope Positive Pixel Count algorithm. For each tumor or organ analyzed, three tissue sections were each divided into three equal regions, generating n=9 data points. Image analysis output were positive pixel counts divided by the area analyzed.
EMT-6 cells were cultured as described previously. […] The tumor size was measured by a caliper, and body weight was monitored. […]

The subject of series [3] is PAN02 cells (murine pancreatic cancer). Description: Intraperitoneal tumor model study, PAN02. The series is classed as in vivo, C57/BL6 mice. Conditions: PAN02 i.p. model.
Description: as §1
PAN02 cells (murine pancreatic cancer) were cultured in RPMI 1640 supplemented with 10% FBS (Invitrogen), penicillin (100 U/ml) and streptomycin (100 μg/ml) (Invitrogen), and pyruvate (1 mM). Prior to inoculation, the cells were lifted from the culture plates with TrypLE Express (Invitrogen), and re-suspended in supplement free (no FBS, no antibiotics) RPMI media. The PAN02 cells (5×10^6 cells/mL, 0.5 mL) were injected into the intraperitoneal space of C57/BL6 mice. One day post-administration of the cells, the mice (n=3 per group) were treated with DTX (40 mg/kg), Cellax (40 mg DTX eqv/kg), or saline. Mice were sacrificed when >20% body weight loss was recorded, or at the first signs of behavioral or mobility dysfunction.

The test system of series [4] is EMT-6 cells (i.v. inoculated). Description: Metastatic tumor study, i.v. EMT-6 cells. The class given is in vivo, BALB/c mice.
Description: as §1
Healthy BALB/c mice received an i.v. dose of EMT-6 cells (in supplement free DMEM media) via tail vein injection (50 uL, 2.5×10^5 cell/mL), and one day following received a dose of Cellax (40 mg DTX/kg), 40 mg/kg DTX, or saline (n=10/group). A second dose (20 mg/kg DTX) was administered on day 7 post-cell injection. Mice were sacrificed when >20% body weight loss was recorded, or at the first signs of behavioral or mobility dysfunction. The lungs, heart, liver, kidneys, spleen, femurs, and brain were harvested for histological analysis. A Kaplan Meier plot of survival probability was generated from the survival data.

Series [5] has as its system LL/2 murine Lewis lung cell carcinoma cells. Description: In vitro cytotoxicity (IC50 analysis), XTT assay. The class given is cell-based. Conditions: Mus musculus, LL/2 (lung). The method, then: (§2) EMT-6 murine mammary carcinoma cells and LL/2 murine Lewis lung cell carcinoma cells were cultured in DMEM media (Invitrogen) with high glucose, supplemented with 10% FBS (Invitrogen), penicillin (100 U/ml) and streptomycin (100 μg/ml) (Invitrogen). The mouse mammary carcinoma cell line EMT-6 was a generous gift from Dr. David Stojdl at the CHEO Research Institute and Dr. Douglas Mahoney at the University of Ottawa. For plating, cells were released from the culture flask with trypsin (Invitrogen), resuspended at a concentration of 1×10^5 cell/mL, and 100 uL of cell suspension was added to the wells of 96 well polystyrene plate. The cells were maintained for 24 hours in culture (37° C., 5% CO2, humidified) before addition of particles. DTX solutions were made up in DMSO and diluted with media to form a 100 nM stock solution with 0.1% DMSO content. These DTX samples were 2× serially diluted with 0.1% DMSO media. Cellax particles were assayed for DTX content, and 10× serially diluted with media. The cultures were maintained for three days, at which time cell viability was assayed by the XTT assay. Briefly, a 1 mg/mL solution of XTT reagent (Sigma) in water was prepared, and phenazine (Sigma) was added just before analysis ([…]). The culture plates were incubated for two hours at 37° C., and absorbance of each well at 480 nm was then read. Wells treated with media (or 0.1% DMSO media) represent 100% viable cultures, and wells containing no cells represent background signal. In a parallel experiment, the DTX or Cellax-containing media were added to the EMT-6 and LL/2 cultures in four steps, with addition of ¼ the dose every 12 hours for two days. The data was analyzed in GraphPad Prism, and the IC50 for each system was calculated.
(Tetrazolium dyes change colour on reduction, which living cells bring about.)

The subject of series [6] is EMT-6 murine mammary carcinoma cells. Description: In vitro cytotoxicity (IC50 analysis), XTT assay. Conditions: Mus musculus, EMT-6 (mammary). The class given is cell-based. The method, then:
as §2

The test system of series [7] is LL/2 flank tumors. Briefly: Subcutaneous flank tumor study, LL/2. The series is classed as in vivo.
The conditions of series [8]: doses of 210, 150, 300, and 233 mg/m^2 for PTX, NK105, Genexol, Opaxio respectively; cited from earlier work.

Regarding `CC(=O)O[C@@]12CO[C@@H]1C[C@H](O)[C@@]1(C)C(=O)[C@H](O)C3=C(C)[C@@H](OC(=O)[C@H](O)[C@@H](NC(=O)OC(C)(C)C)c4ccccc4)C[C@@](O)([C@@H](OC(=O)c4ccccc4)[C@H]21)C3(C)C` [DTX, Docetaxel], the MTD at 7 days in series [1] was 40 mg/kg. Further, the “effect on tumor growth” value is listed as “minor (not significant) effect on tumour growth” in series [2] (EMT-6 flank model, single dose 40 mg/kg DTX (eqv), Cellax p<0.001 vs controls, p<0.05 vs DTX) and “did not alter tumor growth characteristics” in series [7] (LL/2 flank model, single dose 40 mg/kg DTX (eqv)). Moreover, the “tumor histology: apoptosis (TUNEL), cell replication (Ki67), angiogenesis (CD31)” value in series [2] (EMT-6 tumors, 40 mg/kg, compared to DTX treated tumors and controls) was “caused necrosis/apoptosis”. Further, in series [3] (40 mg/kg), the survival result is reported as “survival was significantly extended”. Moreover, the “weight loss or disease symptoms” value in series [3] (40 mg/kg (DTX eqv), n=3 per group) is “did not exhibit signs of weight loss or disease symptoms”. The median survival time in series [4] (40 mg/kg day 1, 20 mg/kg day 7, n=10/group) was determined as 9 days. In series [4] (metastatic EMT-6 model, 40 mg/kg), the “onset of weight loss” value came to 6 days. Also, the “signs of disease stress: parelsis (leg movements), piloerection” value in series [4] (metastatic EMT-6 model, mice affected per group of 10) is listed as 4/10. The 50% inhibitory concentration (IC50) worked out at 12 nM in series [5] (48 h, dose in four parts over two days, read-out: IC50 DTX (nM) Metronomic); 767 nM in series [5] (single (bolus) dose, XTT, Cellax as DTX content, read-out: IC50); 6 nM in series [6] (EMT6, 48 h, dose in four parts over two days, read-out: IC50 DTX (nM) Metronomic); 80 nM in series [6] (EMT6, single (bolus) dose, XTT, Cellax as DTX content, read-out: IC50). Besides, the “tumor histology: necrosis (H&E) and TUNEL staining” value in series [7] (LL/2 tumors) is “positive TUNEL staining was minimal”.

`CC(=O)O[C@H]1C(=O)[C@@]2(C)[C@H]([C@H](OC(=O)c3ccccc3)[C@]3(O)C[C@H](OC(=O)[C@H](O)[C@@H](NC(=O)c4ccccc4)c4ccccc4)C(C)=C1C3(C)C)[C@]1(OC(C)=O)CO[C@@H]1C[C@@H]2O` [PTX, paclitaxel]: the half life in series [8] was 13.3 h.

In the case of `Nc1ccn([C@@H]2O[C@H](CO)[C@@H](O)C2(F)F)c(=O)n1` [gemcitabine], in series [3] (120 mg/kg), the benefit of treatment entry is reported as “did not confer significantly increased benefits”.

By MTD is commonly meant the highest dose tested that stayed within the study's limit of toxicity. What is called IC50 is the concentration needed to halve the response being measured.
